The values that follow come from EP4014964A1, “TOPICAL FORMULATION” (Almirall S.A., priority 2020, dated 2022).

The test system of this assay is immortalized human sebocyte cell line, SZ95. Nature of the assay: In vitro assay of inhibition of Lipid Synthesis. The format is cell-based. The conditions noted are these: SZ95 cells, lipid synthesis induced by 75µM AA, 48h, neutral lipids measured with AdipoRed fluorescence. The protocol: To evaluate the inhibition of lipid synthesis, the immortalized human sebocyte cell line, SZ95 (stablished by Zouboulis, C.C. et al J Invest Dermatol 1999; 113: 1011-20), was treated with arachidonic acid (AA) in presence or absence of compound. Lipids were detected by using a lipid sensing fluorophore.
10k cells were plated in 384 well microtiter plates and incubated at 37 °C and 5% CO2 in DMEM/F12 supplemented with 10% FBS, 1.25ng/ml of rhEGF and GA-1000, using the MicroClime Lids from Labcyte to reduce the edge effect, before of compound and stimulus addition.
After 24h, compounds were dissolved in DMSO 100%. Then the stocks were serial diluted 1/3 in DMSO 100%, and this battery of solutions were diluted 1/10 in culture medium. Later, compounds dissolved in culture media were added over cells, diluting the solutions prepared 1/40 in the final volume of the assay. Then, cells and compounds were preincubated for 30 min at 37 °C and 5% CO2. After this prior incubation, the lipid synthesis was induced by 75µM of AA final solution, preparing a solution 10x in culture media containing a 1.25% of DMSO. Finally, SZ95 treated were incubated for 48h at 37°C and 5% CO2.
Neutral lipids were measured using AdipoRedTM, purchased from Lonza. To do that, cells were washed with PBS and incubated with a solution of AdipoRedTM (final dilution 1/80 in PBS) for 30 min at room temperature. After the staining process, the fluorescence intensity (FI) was quantified using a fluorescence plate reader (excitation 485 nm; emission 535).
Activity of compounds was calculated as % of inhibition considering the maximal fluorescence for AA-stimulated cells and the minimum fluorescence for unstimulated cells as controls.

The IC50 is the concentration at which inhibition is half-maximal. The molecule `CCCCCCCc1ccc(-c2c[nH]c(C(=O)O)c2F)c(CC)c1` [Example 2, 4-(2-Ethyl-4-heptylphenyl)-3-fluoro-1H-pyrrole-2-carboxylic acid] returned an IC50 (Homo sapiens) of less than 0.2 µM. `CCCCCCCCC1CCC(c2c[nH]c(C(=O)O)c2F)CC1` (stereo not shown) [Example 4, 3-Fluoro-4-((1r,4s)-4-octylcyclohexyl)-1H-pyrrole-2-carboxylic acid] displayed an IC50 of less than 0.2 µM. `CCCCCCCc1ccc(-c2c[nH]c(C(=O)O)c2F)c(Cl)c1` [Example 1, 4-(2-Chloro-4-heptylphenyl)-3-fluoro-1H-pyrrole-2-carboxylic acid] yielded an IC50 (Homo sapiens) of less than 0.2 µM. For `CCCCCCCCCCCCCc1c[nH]c(C(=O)O)c1F` [Example 3, 3-Fluoro-4-tridecyl-1H-pyrrole-2-carboxylic acid], for the setting “Homo sapiens”, the IC50 is less than 0.05 µM.
